As usually defined, the IC50 is the concentration needed to halve the response being measured. One may read the inhibition as the change of the read-out against control, counted positive when it falls. As usually defined, the EC50 is the concentration needed to bring the measured effect to its halfway point.

SMILES strings stand for the structures. ≈ marks a conversion by molar mass, not a printed value.

Data on 56 compounds can be found in ChEMBL document CHEMBL5230099, “Free radical scavengers: An overview on heterocyclic advances and medicinal prospects” (Eur J Med Chem, 2020).

Assay type in all cases: functional
Assay [1] can be described thus: Antioxidant activity assessed as DPPH radical scavenging activity. For orientation: DPPH is a stable violet radical that fades when it is reduced.
Assay [2] can be described thus: Antioxidant activity assessed as DPPH radical scavenging activity by measuring inhibition rate relative to control. Also noted: concentration or dose not given beside the values. To be noted: dose or concentration not given here.
Assay [3] is described as follows: Antioxidant activity assessed as trolox equivalent of ABTS-radical scavenging activity.
A short description of assay [4]: Antioxidant activity assessed as trolox equivalent of DPPH radical scavenging activity.
The nature of assay [5]: Antioxidant activity by ORAC-FL method. Further details: reference not given here.
A short description of assay [6]: Antioxidant activity assessed as BHT equivalent of DPPH radical scavenging activity.
Assay [7] in a line: Antioxidant activity assessed as DPPH radical scavenging activity at 0.25 mg/ml incubated for 30 mins relative to control.
Assay [8] can be described thus: Antioxidant activity assessed as DPPH radical scavenging activity at 1 mg/ml incubated for 30 mins relative to control.
Assay [9] can be described thus: Antioxidant activity assessed as ABTS-radical scavenging activity measured upto 6 mins.
A short description of assay [10]: Antioxidant activity assessed as DPPH radical scavenging activity by measuring inhibition rate at 60 ug/ml incubated for 50 mins in dark by UV-Vis spectrophotometric analysis relative to control. As to conditions: dose 60.0 µg/ml.
Assay [11] in a line: Antioxidant activity assessed as DPPH radical scavenging activity incubated for 30 mins under dark condition.

On to `C[C@H]1O[C@H](O[C@H]2[C@H](O)[C@@H](O)[C@@H](O[C@H]3[C@H](O)[C@@H](O)C(O)O[C@@H]3CO)O[C@@H]2CO)[C@H](O)[C@@H](O)[C@@H]1N[C@H]1C=C(CO)[C@@H](O)[C@H](O)[C@H]1O` (some centres not stated) [ACARBOSE], for which the IC50 in [1] is 81.12 µg/mL.

Take `CSc1nc2nc(NN)c3ccccc3n2n1`: in [2], the inhibition was found to be 85.9%.

Take `COC(=O)c1c2c(c3ccccc3c1O)OC(C)(C)C=C2` [MOLLUGIN]: the 50% inhibitory concentration (IC50) in assay [1] was 0.7 µg/mL.

For `Oc1cc(Cc2ccccc2)c(O)cc1Br`, the half-maximal inhibitory concentration (IC50) in assay [1] was found to be 13.32 µg/mL. Consider `COc1ccccc1[C@H]1NC(C(=O)O)CS1` (some centres not stated), for which the concentration for half-maximal inhibition (IC50) in assay [1] (read-out: IC50) worked out at 1.5 µM. As to `O=C(c1ccccc1)c1ccc(O)cc1Br`, in assay [1], the IC50 worked out at 19.24 µg/mL. For the compound `Cc1cc(N2CCN(c3cccc(C4CC(=O)c5ccccc5O4)c3)CC2)nc(-c2ccccc2O)n1` (configuration not stated), the Activity in assay [3] turned out to be 369 µmol/g.

`O=C(O)C1CS[C@@H](c2ccccc2)N1` (some centres not stated): the concentration for half-maximal inhibition (IC50) in assay [1] (read-out: IC50) stood at 1.54 µM. `Cc1ccc([C@H]2NC(C(=O)O)CS2)cc1` (some centres not stated): in assay [1] (read-out: IC50), the IC50 worked out at 1.22 µM. As for `CNc1cc(/C=C/c2cc(/C=C/c3ccc(OCC(N)=O)c(OC)c3)[nH]n2)ccc1OCC(N)=O`, the IC50 in [1] came out at 20 µg/mL. Take `O=C(N/N=C/c1c(O)cc(O)cc1O)c1cc2ccccc2[nH]1`: the Activity in [4] was found to be 4190 µmol/g. Take `O=C(/C=C/c1ccc(O)c(O)c1)O[C@H](Cc1ccc(O)c(O)c1)C(=O)O` [ROSMARINIC ACID]: the IC50 in assay [1] worked out at 0.4 µg/mL. Consider `Oc1ccc(Cc2cc(O)c(Br)cc2O)cc1`, for which, in assay [1], the half-inhibitory concentration (IC50) is 13.86 µg/mL.

As to `O=C(/C=C/c1ccc(O)c(O)c1)O[C@@H]1C[C@@](O)(C(=O)O)C[C@@H](O)[C@@H]1O`, in [1], the EC50 came out at 13.4 µg/mL (≈ 37.8 µM). Take `CSc1nc2nc(N/N=C/c3cccnc3)c3ccccc3n2n1`: the inhibition in [2] was 65%. On to `CSc1nc2nc(N/N=C(\C)c3ccc([N+](=O)[O-])cc3)c3ccccc3n2n1`, for which the inhibition in [2] stood at 78%. Turning to `O=C(O)C1CS[C@@H](c2cccc(Cl)c2Cl)N1` (some centres not stated), in assay [1] (read-out: IC50), the IC50 is 0.93 µM. `O=c1c2c(F)cccc2[se]n1-c1ccc2cccc(O)c2n1` had an Activity in assay [5] of 2.3 µmol.

For the compound `CC1(C)C=Cc2c(C(=O)O)c(O)c3ccccc3c2O1`, in [1], the IC50 came to 42.5 µg/mL. For the compound `O=c1c2cccc(F)c2[se]n1-c1ccc2cccc(O)c2n1`, the Activity in assay [5] stood at 3.6 µmol. Regarding `O=C(c1ccc(O)c(O)c1)c1cc(O)c(Br)cc1O`, the half-inhibitory concentration (IC50) in assay [1] turned out to be 16.44 µg/mL. For `O=C(CCc1ccc(O)cc1)c1c(O)cc(O)cc1O`, the Activity in assay [6] came out at 1.27 mg. As to `COc1ccc(-c2nn(-c3ccccc3)cc2/C=C2\SC(=O)N(Cc3ccccc3)C2=O)cc1`, the half-inhibitory concentration (IC50) in [1] was found to be 127.18 µg/mL. Take `O=c1c2cccc(Cl)c2[se]n1-c1ccc2cccc(O)c2n1`: the Activity in assay [5] amounted to 0.9 µmol.

With `O=C(O)C1CS[C@@H](c2cccc(F)c2F)N1` (some centres not stated), the IC50 in [1] (read-out: IC50) turned out to be 0.83 µM.

For `COc1cc2c(Nc3ccc(O)cc3)c([N+](=O)[O-])cnc2cc1OCCCN1CCC(C)CC1`, the Activity in assay [7] was found to be 36%; in [8], 84%. For the compound `O=C(/C=C/c1ccc(/C=C/C(=O)c2ccc(Oc3ccccc3)cc2)cc1)c1ccc(Oc2ccccc2)cc1`, in assay [9], the Activity came to 174 µg/mL. Regarding `O=C(/C=C/c1ccc(O)c(O)c1)O[C@@H]1C[C@](O)(C(=O)O)C[C@@H](O)[C@H]1O` [CHLOROGENIC ACID], the concentration giving a half-maximal response (EC50) in [1] was 13.8 µg/mL (≈ 38.9 µM). As to `O=C(N/N=C/c1cc(O)ccc1O)c1cc2ccccc2[nH]1`, the Activity in assay [4] was 9960 µmol/g. Consider `O=C(c1cc(O)c(O)c(O)c1)c1cc(O)c(Br)cc1O`, for which, in assay [1], the concentration for half-maximal inhibition (IC50) worked out at 14.43 µg/mL. With `COc1ccc2c(=O)cc(-c3ccc(N4CCN(c5nc6ccccc6s5)CC4)cc3)oc2c1`, the Activity in assay [3] was found to be 317 µmol/g. For `O=C1CC(c2cccc(N3CCN(c4nc5ccccc5s4)CC3)c2)Oc2ccccc21` (configuration not stated), the Activity in assay [3] was 464 µmol/g. In the case of `COC(=O)c1c(O)c2ccccc2c2occc12` [FUROMOLLUGIN], the half-maximal inhibitory concentration (IC50) in assay [1] was determined as 100 µg/mL. Turning to `COc1cc(-c2nc3ccc(N4CCOCC4)cc3[nH]2)ccc1O`, the inhibition in assay [10] is 76.1%. Turning to `CCn1c(-n2cc(/C=N/N=c3\[nH]c(-c4ccc(Br)cc4)cs3)c(-c3ccc(Cl)cc3)n2)nc2c1c(=O)n(C)c(=O)n2C`, the half-maximal inhibitory concentration (IC50) in [11] came out at 5.71 µg/mL (≈ 8.59 µM).

Regarding `O=C(O)CN1C(=O)S/C(=C\c2cn(-c3ccccc3)nc2-c2ccccc2)C1=O`, the half-maximal inhibitory concentration (IC50) in [1] turned out to be 128.55 µg/mL. Regarding `O=C(O)/C=C/c1ccc(O)c(O)c1` [CAFFEIC ACID], the concentration for half-maximal inhibition (IC50) in assay [1] is 0.8 µg/mL. As for `O=C(N/N=C/c1ccc(O)c(O)c1O)c1cc2ccccc2[nH]1`, the Activity in assay [4] is 12800 µmol/g. Take `COc1cc(-c2nc3ccc(N4CCN(C)CC4)cc3[nH]2)ccc1O`: the inhibition in [10] stood at 63.6%. Regarding `Oc1ccc(-c2nc3ccc(N4CCOCC4)cc3[nH]2)cc1O`, in [10], the inhibition amounted to 77%.

In assay [5], `O=c1c2cccc(C(F)(F)F)c2[se]n1-c1ccc2cccc(O)c2n1` returned an Activity of 0.3 µmol.

As to `O=C(N/N=C/c1cc(Br)ccc1O)c1cc2ccccc2[nH]1`, the Activity in [4] amounted to 14.2 µmol/g.

For `O=C1S/C(=C\c2cn(-c3ccccc3)nc2-c2ccc(O)cc2)C(=O)N1Cc1ccccc1`, the IC50 in assay [1] stood at 110.88 µg/mL. `CSc1nc2nc(NNC(=S)NC3CCCCC3)c3ccccc3n2n1`: the inhibition in [2] is 91.2%. For the compound `CCn1c(-n2cc(/C=N/N=c3/scc(-c4ccc(Br)cc4)n3-c3ccccc3)c(-c3ccc(OC)cc3)n2)nc2c1c(=O)n(C)c(=O)n2C`, the half-inhibitory concentration (IC50) in [11] turned out to be 4.89 µg/mL (≈ 6.64 µM). For `CN1CCN(c2ccc3nc(-c4ccc(O)c(O)c4)[nH]c3c2)CC1`, in [10], the inhibition is 76.8%. In the case of `COc1cc(/C=C/C(=O)CC(=O)/C=C/c2ccc(O)c(OC)c2)ccc1O` [CURCUMIN], the half-maximal inhibitory concentration (IC50) in [1] stood at 28 µg/mL. As for `CCn1c(-n2cc(/C=N/NC(N)=S)c(-c3ccc(Cl)cc3)n2)nc2c1c(=O)n(C)c(=O)n2C`, in assay [11], the 50% inhibitory concentration (IC50) came out at 10.24 µg/mL (≈ 21.1 µM). As to `O=C(O)C1CS[C@@H](c2cccc(Cl)c2)N1` (some centres not stated), the IC50 in [1] (read-out: IC50) was 1.52 µM. Turning to `C=CCNC(=S)NNc1nc2nc(SC)nn2c2ccccc12`, the inhibition in [2] turned out to be 91%.

Turning to `O=c1c2c(C(F)(F)F)cccc2[se]n1-c1ccc2cccc(O)c2n1`, the Activity in [5] came out at 0.2 µmol. In the case of `O=C(N/N=C/c1ccc(O)cc1O)c1cc2ccccc2[nH]1`, in assay [4], the Activity stood at 2000 µmol/g. Turning to `O=C(CCc1ccc(O)cc1)c1c(O)cc(O[C@@H]2O[C@H](CO)[C@@H](O)[C@H](O)[C@H]2O)cc1O`, the Activity in assay [6] turned out to be 0.89 mg. `COc1cccc(/C=N/NC(=O)c2cc3ccccc3[nH]2)c1O`: the Activity in assay [4] was determined as 38.7 µmol/g. Take `O=C(/C=C/c1ccc(/C=C/C(=O)c2ccc3c(c2)OCO3)cc1)c1ccc2c(c1)OCO2`: in assay [9], the Activity worked out at 220 µg/mL. For `O=C(N/N=C/c1ccccc1O)c1cc2ccccc2[nH]1`, in assay [4], the Activity stood at 8.71 µmol/g.
